Marks after values point to notes of the source that are not given here.
Legend:
[1] = HORAC assay (OxiSelect HORAC Assay), loss of FITC fluorescence; format: biochemical
Protocol: (§1) This assay procedure was used to screen materials for antioxidant properties using non-cell-based methods. Dilutions of HSP tested were 10%, 5%, 1%, 0.5%, 0.1%, 0.05%, and 0.01%.
(§2) Fluorescein (FITC) is normally a highly fluorescent molecule, yet when fluorescein is oxidized by either peroxyl radicals or hydroxyl radicals, it loses its fluorescence. Thus, when FITC is incubated in the presence of 2,2′-azobis(2-amidino-propane) dihydrochloride (AAPH, a peroxyl radical generating compound), or a combination of hydrogen peroxide and cobalt (a hydroxyl radical generating system based on the Fenton-type reaction), there will be a time dependent loss of FITC fluorescence. However, if a material with antioxidant properties is present during the incubation, the loss of fluorescence will be delayed as some of the peroxyl or hydroxyl radicals react with the antioxidant material instead of the FITC. Under these conditions, the delay or prevention in fluorescence decay will be in proportion to the antioxidant capacity of the test material.
The HORAC assay was performed as specified by the manufacturer of the kit. For the assay, the test materials were prepared in Assay Buffer at 10× their final desired concentrations. Caffeic acid was used as the positive control for this assay. To start the assay, 20 μl of the test material or positive control were added to the wells of a 96-well plate. All of the samples were prepared in triplicate. Next, 140 μl of an FITC solution was added to each well and the plate was incubated for 30 minutes in the dark. After this incubation, 20 μl of a hydrogen peroxide solution (Hydroxyl Radical Initiator) was added to each well, followed by the addition of 20 μl of a cobalt solution (Fenton Reagent). The plate was mixed and then read using a Fluoroskan Ascent Fluorometer at 3-minute intervals for 60 minutes with an excitation wavelength of 480 nm and an emission wavelength of 518 nm.
(§3) The loss of FITC fluorescence can be graphed by plotting fluorescence intensity vs time for each of the samples to generate a fluorescence decay curve. The area under this curve (AUC) then represents the extent of FITC fluorescence loss over the course of the assay, and this measurement is then used as an index for the effectiveness of the antioxidant samples. The AUC for a sample can be calculated using the following equation: […]
(§4) Where RFUO is the initial fluorescence measurement of the sample at time 0, with each subsequent RFU measurement indicated by the respective increased numbers. The AUC measurements were then used to determine the percent inhibition for each concentration of the test material screened, followed by the determination of the IC50, the concentration of the material at which 50% of the FITC signal loss due to radical interaction is prevented.

[2] = Osmotic stress assay: keratinocytes pretreated, exposed to hypertonic NaCl media, viability by MTT; format: cell-based, human; details: human, human adult epidermal keratinocytes, then 24 h with 0 mM added NaCl, MTT, % of untreated 0 mM NaCl control, mean +/- SD, read-out: Cell Viability
Protocol: (§5) This assay procedure was used to screen the recombinantly produced HSP for its ability to protect against osmotic stress, using cultured human keratinocytes as the testing model. The assay used changes in cell viability as the endpoint for measuring the protective effect.
(§6) For this study, human keratinocytes were pretreated for 24 hours with either HSP, a mild hypertonic solution of sorbitol (positive control), or left untreated (negative control). After the pretreatment, the cell culture media was replaced with media supplemented with NaCl at progressively increasing hypertonic concentrations. The cells were then incubated again for 24 hours. After the second incubation, cell viability was determined using an MTT assay.
(§7) The MTT assay is a colorimetric analysis of the metabolic activity of the cell, which is a reflection of cell viability. Viable cells can take up MTT, which is then reduced by mitochondria, resulting in the formation of insoluble purple formazin crystals. These crystals are then extracted from the cells with isopropanol and quantified spectrophotometrically. The intensity of the purple color is directly proportional to the number of viable cells.
(§8) Human adult epidermal keratinocytes were grown using EpiLife Media (60 µM calcium) supplemented with 0.2% v/v bovine pituitary extract, 1 μg/ml recombinant human insulin-like growth factor-1, 0.18 μg/ml hydrocortisone, 5 μg/ml bovine transferrin, 0.2 ng/ml human epidermal growth factor. When a sufficient number of cells had been grown, they were transferred to 96-well plates and cultured for a minimum of 24 hours to allow the cells to adhere to the well plates. The cells were then used when they were fully confluent.
(§9) The test materials and the sorbitol positive controls were prepared in fully supplemented EpiLife media. Supplemented EpiLife media alone served as the untreated control. These solutions were applied to the keratinocytes in the 96-well plates, after which the plates were incubated for 24 hours at 37±2° C. and 5±1% CO2.
(§10) After the pretreatment incubation, the cell culture media was removed from both of the 96-well plates and replaced with supplemented EpiLife media which had progressively increasing concentrations of additional NaCl added (0, 75, 100, 125 and 150 mM) to generate a series of increasingly hypertonic solutions. After the addition of the media/NaCl, the 96-well plates were incubated for an additional 24 hours.
(§11) After the second 24-hour incubation, the cell culture media was removed and the cells were washed once with phosphate buffered saline. After washing, 100 μl of keratinocyte cell culture media supplemented with MTT (0.5 mg/ml) was added to each well. The 96-well plates were returned to the incubator (37+2° C. and 5+1% CO2) for one hour. After the incubation the MTT solution was removed via aspiration and the cells were rinsed twice with phosphate buffered saline to remove any residual MTT on the outside of the cells and then 100 μl of isopropyl alcohol was added to the wells to extract the purple formazin crystals. The well plates were then read at 540 nm using isopropyl alcohol as a blank.
(§12) The mean MTT absorbance value for the untreated control cells not exposed to any osmotic stress (0 mM NaCl) was calculated and used to represent 100% cell viability. The individual MTT values from the cells undergoing the various treatments were then divided by the mean value for the negative control cells and expressed as a percentage to determine the change in cell viability caused by each treatment.

human keratinocytes = assay: as above; format: cell-based; details: for Cell Viability: MTT, % of untreated 0 mM NaCl control, mean +/- SD
Protocol: as §5, §6, §7, §8, §9, §10, §11, §12

[3] = ORAC assay, loss of FITC fluorescence with AAPH; format: biochemical
Protocol: as §1, §2
For the ORAC assay, the test materials were prepared in Assay Buffer at 10× their final desired concentrations. Trolox was used as the positive control for this assay. To start the assay, 20 μl of the test material or positive control were added to the wells of a 96-well plate. All of the samples were prepared in triplicate. Next, 160 μl of a 360 nM FITC solution was added to each well and the plate was incubated for 30 minutes in the dark. After this incubation, 20 μl of a 153 mM AAPH (peroxyl radical generator) was added to each well. The plate was mixed and then read using a Fluoroskan Ascent Fluorometer at 2.5-minute intervals for 60 minutes with an excitation wavelength of 480 nm and an emission wavelength of 518 nm.
as §3, §4

[4] = concentration at which 50% of the FITC signal loss is prevented

## O=C(O)/C=C/c1ccc(O)c(O)c1 [Caffeic Acid, Caffeic acid, reference compound]
[1]; concentration 0.625 ug/ml
  Percent Inhibition: 8.85%
[1]; concentration 1.25 ug/ml
  Percent Inhibition: 14.56%
[1]; concentration 2.5 ug/ml
  Percent Inhibition: 56.30%
[1]; concentration 5 ug/ml
  Percent Inhibition: 68.86%
[1]; concentration 10 ug/ml
  Percent Inhibition: 60.03%
[1]; concentration 20 ug/ml
  Percent Inhibition: 62.58%
[1]; [4]
  IC50: IC50: 3.25 ug/ml

## OC[C@@H](O)[C@@H](O)[C@H](O)[C@@H](O)CO [Sorbitol, sorbitol, reference compound]
[2]; 24 h pretreatment with 12.5 mM Sorbitol
  viability at 24 h, 12.5 mM: 101%
[2]; 24 h pretreatment with 25 mM Sorbitol
  viability at 24 h, 25 mM: 122%
Human keratinocytes; 24 h pretreatment with 12.5 mM Sorbitol, then 24 h with 75 mM added NaCl
  Cell Viability: 103.2 +/− 1.8%
Human keratinocytes; 24 h pretreatment with 12.5 mM Sorbitol, then 24 h with 100 mM added NaCl
  Cell Viability: 98.3 +/− 6.0* %
Human keratinocytes; 24 h pretreatment with 12.5 mM Sorbitol, then 24 h with 125 mM added NaCl
  Cell Viability: 73.2 +/− 13.3* %
Human keratinocytes; 24 h pretreatment with 12.5 mM Sorbitol, then 24 h with 150 mM added NaCl
  Cell Viability: 24.1 +/− 9.6%
Human keratinocytes; 24 h pretreatment with 25 mM Sorbitol, then 24 h with 75 mM added NaCl
  Cell Viability: 100.0 +/− 7.7%
Human keratinocytes; 24 h pretreatment with 25 mM Sorbitol, then 24 h with 100 mM added NaCl
  Cell Viability: 93.9 +/− 2.8* %
Human keratinocytes; 24 h pretreatment with 25 mM Sorbitol, then 24 h with 125 mM added NaCl
  Cell Viability: 69.5 +/− 9.7* %
Human keratinocytes; 24 h pretreatment with 25 mM Sorbitol, then 24 h with 150 mM added NaCl
  Cell Viability: 29.5 +/− 5.6%
Human keratinocytes; at both 100 mM and 125 mM NaCl
  cell viability versus untreated cell samples: significantly greater than the untreated cell samples
Human keratinocytes; highest concentration of added NaCl (150 mM)
  osmoprotective effect: neither HSP nor sorbitol (positive control) showed a significant osmoprotective effect
Human keratinocytes; increasing added NaCl, overall statement
  effect on the reduction in cell viability caused by the increase in hypertonicity: slow the reduction in cell viability

## Cc1c(C)c2c(c(C)c1O)CCC(C)(C(=O)O)O2 (stereo not shown) [Trolox, reference compound]
[3]; concentration 0.078125 ug/ml
  Percent Inhibition: 30.79%
[3]; concentration 0.15625 ug/ml
  Percent Inhibition: 47.09%
[3]; concentration 0.3125 ug/ml
  Percent Inhibition: 68.77%
[3]; concentration 0.625 ug/ml
  Percent Inhibition: 83.84%
[3]; concentration 1.25 ug/ml
  Percent Inhibition: 84.06%
[3]; concentration 2.5 ug/ml
  Percent Inhibition: 87.4%
[3]; concentration 5 ug/ml
  Percent Inhibition: 90.3%
[3]; [4]
  IC50: IC50: 0.42 ug/ml

— patent US20250304630A1, “POLYPEPTIDES HAVING OSMOPROTECTIVE ACTIVITY, COMPOSITIONS THEREOF AND USES THEREOF” (DELAVIE SCIENCES, LLC, priority 2022, published 2025)
